Source: article PMC12765074, “Mechanistic insights into enterocin C targeting the undecaprenyl phosphate recycling protein BacA” (The Journal of Biological Chemistry, 2025)
Where “and” joins values, the source holds several entries; their conditions need not be identical. Identical values can stand only once. Marks after values point to notes of the source that are not given here.

Tests used:
[1] = tested on: E. faecalis EfΔbacA cells expressing BacAef K209A D106A D110A; experiment: survival test; assay type: cell-based, Enterococcus faecalis; conditions: 0.5 μM EntC, 30 min, 37 °C, p ≤ 0.0001, three experiments
L. lactis IL1403 = experiment: spot-on-lawn antibacterial assay, L. lactis; assay type: cell-based, Lactococcus lactis; conditions: 6 μl droplets, L. lactis IL1403, M17G agar, overnight
BacAef E20A = BacAef E20A (Enterococcus faecalis, UniProt A0ACD6TE02, E32A); experiment: ITC, BacAef E20A; assay type: binding; conditions: 20 °C
Description: The experiments were carried out at 20 °C.

[2] = tested on: E. faecalis EfΔbacA cells expressing BacAef K209A; experiment: survival test; assay type: cell-based, Enterococcus faecalis; conditions: 0.5 μM EntC, 30 min, 37 °C, p ≤ 0.0001, three experiments
[3] = tested on: E. faecalis EfΔbacA cells expressing BacAef R172A; experiment: survival test; assay type: cell-based, Enterococcus faecalis; conditions: 0.5 μM EntC, 30 min, 37 °C, p ≤ 0.0001, three experiments
[4] = tested on: EfΔbacA cells (pIL252 empty vector); experiment: spot assay on bacA-deleted strain; assay type: cell-based, Enterococcus faecalis; conditions: spot on BHI agar
BacAef = BacAef (Enterococcus faecalis, UniProt A0ACD6TE02); assay type: binding; conditions: DSC, BacAef 33 μM + peptides 66 μM, 60 °C/h, representative of triplicate
Description: Thermal stability of BacA protein in different mixtures of peptides was performed by DSC on a MicroCal model VP-DSC (Malvern Panalytical, Malvern, UK). BacA (33 μM) was mixed with different mixtures of peptides at twice the BacA concentration (i.e. 66 μM). Each measurement was preceded by a baseline scan with the standard buffer. Scans were performed at 1 K/min (60 °C/h) temperature ramp between 30 °C and 100 °C. The heat capacity of the buffer was subtracted from that of the protein sample before analysis. The thermodynamic parameters were determined by fitting the data to the following equation: ΔCp(T)=Kd(T)ΔHcalΔHvH/[1+Kd(T)]^2RT^2 where Kd is the equilibrium constant for a two-state process, ΔHvH the enthalpy calculated based on a two-state process and ΔHcal the measured enthalpy.

[5] = tested on: E. faecalis EfΔbacA cells expressing BacAef K209A D110A; experiment: survival test; assay type: cell-based, Enterococcus faecalis; conditions: 0.5 μM EntC, 30 min, 37 °C, p ≤ 0.001, three experiments
BacAec [6] = molecular target: T1, BacAec (Escherichia coli, UniProt P60932); conditions: DDM micelles
T1 sequence (P60932 whole entry): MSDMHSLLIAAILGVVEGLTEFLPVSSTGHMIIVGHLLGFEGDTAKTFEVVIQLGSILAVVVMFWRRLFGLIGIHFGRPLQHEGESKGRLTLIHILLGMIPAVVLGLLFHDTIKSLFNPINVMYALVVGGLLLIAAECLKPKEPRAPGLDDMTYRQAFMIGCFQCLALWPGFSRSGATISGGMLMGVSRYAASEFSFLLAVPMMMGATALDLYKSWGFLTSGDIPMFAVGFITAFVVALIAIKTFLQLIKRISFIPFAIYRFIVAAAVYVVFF
Description: The C55-PP phosphatase assays were performed in a 10-μl reaction mixture containing 20 mM Tris-HCl, pH 7.4, 400 μM CaCl2, 150 mM NaCl, 0.1% (w/v) DDM and 50 μM radiolabeled [^14C]C55-PP (900 Bq). The BacA concentration was adjusted in order to achieve less than 30% substrate hydrolysis. The mixture was incubated for 10 min at 37 °C, and the reaction was stopped by freezing in liquid nitrogen. Substrates and products were separated by thin-layer chromatography on precoated silica gel 60 plates (Merck) using 1-propanol/ammonium hydroxide/water (6:3:1, v/v/v) as the mobile phase. Radioactive spots were located and quantified using a radioactivity scanner (model Multi-Tracermaster LB285, Berthold-France). When the phosphatase activity was tested at different pH values, the following buffers were used at 20 mM: sodium acetate (pH 4–7) or Tris-HCl (pH 7–8). In the EDTA assay, the protein was pre-treated with 200 μM EDTA. For pH and EDTA assays, CaCl2 was omitted from the reaction buffer.

PgpB-liposomes = experiment: proteoliposome permeabilisation assay (BCECF), PgpB-liposomes; assay type: biochemical, Escherichia coli; conditions: EntC
[7] = tested on: E. faecalis EfΔbacA cells expressing BacAef D110A; experiment: survival test; assay type: cell-based, Enterococcus faecalis; conditions: 0.5 μM EntC, 30 min, 37 °C, three experiments
BacAec [8] = molecular target: T1, BacAec; conditions: highest concentration tested 100 μM
Description: The reconstitution of BacA and PgpB in liposomes was achieved through adapted protocols previously described ([48]). Liposomes were prepared by rehydrating a lipid film of DOPC: DOPG: DOPE (3 mg: 0.75 mg: 1.25 mg) after 4 h of desiccation by adding 1 ml of buffer (20 mM HEPES, pH 7.5, 50 mM NaCl, 15% glycerol). […] The lipid suspension underwent 10 freeze-thaw cycles in liquid nitrogen and was extruded through a 100 nm polycarbonate membrane (Millipore). Protein reconstitution was performed by destabilizing the liposomes with 5.5 mM Triton X-100 for 15 min. The protein was added at a final concentration of 15 μg/ml and the mixture was incubated at 4 °C for 15 min.
The liposomes were used to measure the C55-PP phosphatase activity of BacA in a membrane environment as follows. For each kinetic assay, 5 μl of a reaction mixture containing 20 μM C15-PP, 20 μM [^14C]C5-PP, 180 μM C5-PP in 20 mM HEPES, pH 7.5, 50 mM NaCl, and 15% glycerol were mixed with 5 μl of protein-free liposomes (as a control) or BacA-containing liposomes. The mixture was then supplemented with UppS at a final concentration of 0.2 mg/ml to initiate the enzymatic synthesis of C55-PP. The EntC peptides were added at various concentrations from a water solution. […] Substrates and products were separated and quantified by thin-layer chromatography as previously described for C55-PP phosphatase assay in detergent.

Enterocin C [EntC]
% of survival [1]: 54% and 54 ± 11 ^d % | antibacterial activity (spot-on-lawn), L. lactis (L. lactis IL1403): sensitivity to both bacteriocins | n (BacAef E20A; 400 μM into [BacAef E20A] 33 μM): 0.69 ± 0.01 | Kd (BacAef E20A; 400 μM into [BacAef E20A] 33 μM, pH 7.4, 0.1% DDM, at least triplicate): 190 ± 40 nM | -TΔS (BacAef E20A; into [BacAef E20A]): 13.0 kcal/mol | ΔG (BacAef E20A; into [BacAef E20A]): -9 kcal/mol | ΔH (BacAef E20A; into [BacAef E20A]): -22.0 kcal/mol | % of survival [2]: 11% and 11 ± 1.0 ^d % | % of survival [3]: 7.8% and 7.8 ± 0.8 ^d % | susceptibility of EfΔbacA strain [4]: full resistance | melting temperature (Tm) of BacAef (BacAef; 30-100 °C, Tris-HCl pH 7.5, 0.1% DDM, BacAef alone 66.3 °C): 83.8 °C | enthalpy of denaturation (ΔH) of BacAef (BacAef; BacAef alone 26.7 kcal/mol): 83.7 kcal/mol | % of survival [5]: 7.6 ± 1.0 ^e % | inhibition of BacAec C55-PP phosphatase activity (BacAec [6]): not inhibited | membrane permeabilization of PgpB-liposomes (PgpB-liposomes): no permeabilization effect | % of survival [7]: 2.8 ± 1.0% | inhibition of BacAec in liposomes (BacAec [8]): no inhibitory effect
